Structures are written as SMILES.

Assay type in all cases: in vivo
In data set [1] the test system is tomato plants (Lycopersicon es.). Briefly: Experiment Salt-1: CPPA/NaCl composition, foliar application. The note with it: NaCl 2600 mg/ha. As to the method: Experiment Salt-1: […] There were a total of 5 treatments plus an untreated check, each with 10 replicates per treatment arranged in a randomized block design. […] Each treatment comprised samples treated with CPPA alone, salt alone, or CPPA plus salt. Two rates of CPPA were used; the first was equivalent to 520 mg of TOC per hectare and a second equivalent to 1040 mg of TOC per hectare. Salt was applied at a rate equivalent to 2.6 g of salt per hectare. All treatments were diluted with water to provide a final spray volume equivalent to 208 lit per hectare, made with a spray bottle, with just enough spray solution to wet the leaf surface of each plant. Ten days after treatment the plants were assessed for vigor, leaf number, plant height, plant weight, root weight, shoot weight, and leaf conductance using a SPAD meter and are summarized in Table 8 and depicted in FIGS. 10-16.

Data set [2] shares this test system. Briefly: Experiment Fe-4: foliar CPPA, Fe (FeSO4) or CPPA and Fe on tomato plants. The conditions noted are these: for Leaf # / Vigor / Plt. Ht. / Plt. Wt. / Root Wt. / Shoot Wt.: tomato, foliar. The source says:
Experiment Fe-4: The purpose of this experiment was to determine if the addition of low levels of iron to a CPPA sample containing lower than typical amounts of iron (e.g., Fe/TOC=0.135) would increase the biological response of plants. Nominal Fe/TOC ratios for CPPA range from 0.10 to 0.28 but the optimum ratio for “as-is” samples of CPPA, as determined in the previous experiments, is between 0.2 and 0.25. Thus, for this experiment, non-agrochemically effective amounts of iron were combined with CPPA samples. Tomato plants (Lycopersicon es.) were produced from seed and transplanted into 3 inch by 3 inch pots. There were 16 treatments plus an untreated check with 20 replicates per treatment arranged in a Randomized Complete Block design. Pots were treated with water (UTC), or CPPA only (3 different rates), Fe only (3 different rates), or CPPA and Fe at each of the rates. The CPPA rates corresponded to 260, 520, and 1040 mg organic carbon (TOC) per hectare and the Fe rates corresponded to 130, 260, and 520 mg Fe per hectare. All pots were treated by foliar application immediately after transplanting. Ten days after the application, ten of the plants were harvested and assessed for vigor, leaf number, plant height, plant weight, root weight, and shoot weight. […] Additional application rates of CPPA and Fe were evaluated with similar synergistic results observed for the combination of CPPA with amounts of iron. Twenty days after transplanting, the remaining ten plants in each treatment were assessed.

The subject of the next data set is plants and/or seeds. Briefly: Summary observations: CPPA treated with cation exchange resin, Fe alone and Fe added back. The note with it: seed treatment. How it is done:
The plant biological response was generally observed to be better when a stoichiometric amount of Fe was added back (relative to the amount of CPPA or its TOC value) rather than an excess amount. […] These observations support the premise that the combination of CPPA and Fe are synergistic in their interaction and biological effect on plants and/or seeds.

Setting [3] is: foliar at transplanting, 10 days after treatment.
Setting [4] is: 0 mg TOC/ha + 130 mg Fe/ha, 20 days after application.
Where [5] appears, read: 0 mg TOC/ha + 520 mg Fe/ha, 10 days after application.
The mark [6] stands for this setting: 0 mg TOC/ha + 520 mg Fe/ha, 20 days after application.

As for `[Cl-].[Na+]` [NaCl], in data set [1] (setting [3]), the “Leaf #” value is given as 5.3 e, the “Plt. Ht.” value amounted to 3.5 b, the “Plt. Wt.” value is given as 2.7 c and the “Root Wt.” value is given as 0.8 jc. In addition, in data set [1] (setting [3]), the “Shoot Wt.” value stood at 2.0 c and the Vigor is listed as 2.4 b. Also, in data set [1] (foliar, 10 days), the “phytotoxicity of salt treatment alone” value is “significant amount of phytotoxicity”. Also, the SPAD in data set [1] (leaf conductance using a SPAD meter, foliar at transplanting, 10 days after treatment) is 24.2 b.
`O=S(=O)([O-])[O-].[Fe+2]` [Fe, FeSO4]: the “biological effect on plant, root and shoot weights versus UTC” value in data set [2] (Fe alone 520 mg Fe/ha, 20 days) is given as “apparent slightly negative biological effect”. In addition, in data set [2] (setting [4]), the “Leaf #” value was found to be 6.3 ab and the Vigor is on record as 2.1 c. For the same molecule, in data set [2] (setting [5]), the “Leaf #” value is given as 6.6 ab, the “Plt. Ht.” value is reported as 4.2 b, the “Plt. Wt.” value came to 4.9 b and the “Root Wt.” value is listed as 1.4 bc. For the same molecule, in data set [2] (setting [5]), the “Shoot Wt.” value was 3.6 b and the Vigor amounted to 3.8 b. In data set [2] (setting [6]), the “Leaf #” value was 5.1 b, the “Plt. Ht.” value amounted to 6.3 b, the “Plt. Wt.” value came to 4.5 b and the “Root Wt.” value was determined as 1.6 bc. In data set [2] (setting [6]), the “Shoot Wt.” value was 2.9 cd and the Vigor turned out to be 2.5 c. Further, in the data set with plants and/or seeds, the root development result is “negative effect” and the shoot development result is reported as “negative effect”.

Values taken from US10448635B2, “Modulation of plant biology” (FBSCIENCES HOLDINGS, INC., priority 2012, dated 2019).
